Measured values published in patent publication US5948814A, “Genistein for the treatment of cystic fibrosis” (priority 1998, dated 1999).

How the values were obtained:
ΔF508-CFTR [1] = molecular target: T1, ΔF508-CFTR (Homo sapiens, UniProt P13569, DEL508-508); test: Patch cramming, ΔF508-CFTR patch excised and crammed into NIH/3T3-CFTR cell; format: cell-based; set-up: expressed in transfected cells; host or cells: NIH/3T3 cells, stably transfected (NIH/3T3-ΔF508, gift of Dr. Richard Mulligan); conditions: ΔF508-CFTR crammed into NIH/3T3-CFTR cell; 10 μM forskolin, 50 μM genistein; n=2
T1 sequence (P13569 with tags, fused parts or gaps DEL508-508): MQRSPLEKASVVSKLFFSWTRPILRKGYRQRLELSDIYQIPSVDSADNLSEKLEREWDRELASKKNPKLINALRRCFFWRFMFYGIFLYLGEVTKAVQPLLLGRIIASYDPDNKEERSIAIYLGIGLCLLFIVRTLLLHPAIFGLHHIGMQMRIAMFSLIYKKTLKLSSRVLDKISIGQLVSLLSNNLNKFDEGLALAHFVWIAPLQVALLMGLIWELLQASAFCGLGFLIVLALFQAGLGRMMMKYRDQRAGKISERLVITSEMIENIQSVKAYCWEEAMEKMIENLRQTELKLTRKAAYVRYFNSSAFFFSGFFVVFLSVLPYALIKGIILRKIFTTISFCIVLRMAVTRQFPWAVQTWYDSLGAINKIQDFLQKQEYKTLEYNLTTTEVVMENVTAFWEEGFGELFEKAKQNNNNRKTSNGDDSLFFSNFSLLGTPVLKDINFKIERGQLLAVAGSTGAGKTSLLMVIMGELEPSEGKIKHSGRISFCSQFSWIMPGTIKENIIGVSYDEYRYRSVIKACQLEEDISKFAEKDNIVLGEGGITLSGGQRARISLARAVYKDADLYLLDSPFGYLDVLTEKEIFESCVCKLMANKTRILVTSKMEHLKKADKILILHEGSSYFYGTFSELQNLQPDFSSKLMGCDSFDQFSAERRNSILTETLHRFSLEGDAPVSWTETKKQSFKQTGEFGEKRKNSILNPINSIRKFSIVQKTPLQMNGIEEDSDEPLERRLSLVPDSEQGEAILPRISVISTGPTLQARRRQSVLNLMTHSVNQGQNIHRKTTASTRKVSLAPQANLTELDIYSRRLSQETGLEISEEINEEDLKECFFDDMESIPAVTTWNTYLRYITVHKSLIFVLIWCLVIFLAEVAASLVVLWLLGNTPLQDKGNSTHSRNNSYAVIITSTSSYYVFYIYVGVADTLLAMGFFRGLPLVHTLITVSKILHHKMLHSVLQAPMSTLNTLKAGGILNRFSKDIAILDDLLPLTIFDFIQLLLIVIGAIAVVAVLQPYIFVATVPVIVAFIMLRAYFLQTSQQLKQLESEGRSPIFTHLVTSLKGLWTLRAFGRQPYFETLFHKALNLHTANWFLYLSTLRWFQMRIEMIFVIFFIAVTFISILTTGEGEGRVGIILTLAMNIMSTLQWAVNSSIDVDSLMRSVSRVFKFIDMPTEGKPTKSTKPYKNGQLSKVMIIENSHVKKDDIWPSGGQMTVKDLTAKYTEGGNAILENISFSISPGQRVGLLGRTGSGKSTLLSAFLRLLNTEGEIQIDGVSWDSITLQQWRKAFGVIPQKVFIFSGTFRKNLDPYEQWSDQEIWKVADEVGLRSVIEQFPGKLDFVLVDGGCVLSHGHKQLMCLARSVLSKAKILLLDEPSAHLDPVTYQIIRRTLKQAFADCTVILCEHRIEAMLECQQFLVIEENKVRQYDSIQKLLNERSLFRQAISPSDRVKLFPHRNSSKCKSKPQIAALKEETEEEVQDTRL
Excerpt: Downward deflections represent channel opening.

CFTR = test: In vivo phosphorylation of CFTR (32P) versus I- efflux, NIH/3T3-CFTR cells; format: cell-based; conditions: 50 μM genistein; 0-10 μM forskolin; all phosphorylation levels
Procedure: I^- efflux: I^- efflux was measured as described previously [Reenstra et al., 1996]. Briefly, cells were incubated for 30 minutes with 37° C. I^- efflux buffer [(in mM) 141 NaCl, 4 KCl, 1 KH2 PO4, 0.9 MgCl2, 1.7 CaCl2. 10 N-2hydroxyethylpiperazine-N'-2-ethanesulfonic acid (HEPES), 25 glucose pH 7.4] containing 5 μCi/ml carrier-free ^125 I^- (sodium salt). Extracellular ^125 I^- was removed by washing four times with efflux buffer, and the rate of loss of intracellular ^125 I^- was determined by replacing the bathing solution with 37° C. efflux buffer every 60 seconds for 12 minutes. Time-dependent rates of ^125 I^- efflux are calculated from R=ln(^125 I^-t1 /^125 I^-t2)/(t1-t2), where ^125 I^-t is the intracellular ^125 I^- at time t and t1 and t2 are successive time points. Dose-response curves were obtained from peak rates of 125I^- efflux by nonlinear least squares fitting to R=[Ro +Rmx ·([fsk]/K1/2)]/[1+([fsk]/K1/2)], where Ro and Rmx are the rates of ^125 I efflux at zero and infinite concentration of forskolin (fsk), and K1/2 is the concentration of agonist that gives a half-maximal change.

wt-CFTR [2] = molecular target: T2, wt-CFTR (Homo sapiens, UniProt P13569); set-up: expressed in transfected cells; host or cells: pooled: Calu-3 (endogenous, n=2); conditions: cited from earlier work
T2 sequence (P13569 whole entry): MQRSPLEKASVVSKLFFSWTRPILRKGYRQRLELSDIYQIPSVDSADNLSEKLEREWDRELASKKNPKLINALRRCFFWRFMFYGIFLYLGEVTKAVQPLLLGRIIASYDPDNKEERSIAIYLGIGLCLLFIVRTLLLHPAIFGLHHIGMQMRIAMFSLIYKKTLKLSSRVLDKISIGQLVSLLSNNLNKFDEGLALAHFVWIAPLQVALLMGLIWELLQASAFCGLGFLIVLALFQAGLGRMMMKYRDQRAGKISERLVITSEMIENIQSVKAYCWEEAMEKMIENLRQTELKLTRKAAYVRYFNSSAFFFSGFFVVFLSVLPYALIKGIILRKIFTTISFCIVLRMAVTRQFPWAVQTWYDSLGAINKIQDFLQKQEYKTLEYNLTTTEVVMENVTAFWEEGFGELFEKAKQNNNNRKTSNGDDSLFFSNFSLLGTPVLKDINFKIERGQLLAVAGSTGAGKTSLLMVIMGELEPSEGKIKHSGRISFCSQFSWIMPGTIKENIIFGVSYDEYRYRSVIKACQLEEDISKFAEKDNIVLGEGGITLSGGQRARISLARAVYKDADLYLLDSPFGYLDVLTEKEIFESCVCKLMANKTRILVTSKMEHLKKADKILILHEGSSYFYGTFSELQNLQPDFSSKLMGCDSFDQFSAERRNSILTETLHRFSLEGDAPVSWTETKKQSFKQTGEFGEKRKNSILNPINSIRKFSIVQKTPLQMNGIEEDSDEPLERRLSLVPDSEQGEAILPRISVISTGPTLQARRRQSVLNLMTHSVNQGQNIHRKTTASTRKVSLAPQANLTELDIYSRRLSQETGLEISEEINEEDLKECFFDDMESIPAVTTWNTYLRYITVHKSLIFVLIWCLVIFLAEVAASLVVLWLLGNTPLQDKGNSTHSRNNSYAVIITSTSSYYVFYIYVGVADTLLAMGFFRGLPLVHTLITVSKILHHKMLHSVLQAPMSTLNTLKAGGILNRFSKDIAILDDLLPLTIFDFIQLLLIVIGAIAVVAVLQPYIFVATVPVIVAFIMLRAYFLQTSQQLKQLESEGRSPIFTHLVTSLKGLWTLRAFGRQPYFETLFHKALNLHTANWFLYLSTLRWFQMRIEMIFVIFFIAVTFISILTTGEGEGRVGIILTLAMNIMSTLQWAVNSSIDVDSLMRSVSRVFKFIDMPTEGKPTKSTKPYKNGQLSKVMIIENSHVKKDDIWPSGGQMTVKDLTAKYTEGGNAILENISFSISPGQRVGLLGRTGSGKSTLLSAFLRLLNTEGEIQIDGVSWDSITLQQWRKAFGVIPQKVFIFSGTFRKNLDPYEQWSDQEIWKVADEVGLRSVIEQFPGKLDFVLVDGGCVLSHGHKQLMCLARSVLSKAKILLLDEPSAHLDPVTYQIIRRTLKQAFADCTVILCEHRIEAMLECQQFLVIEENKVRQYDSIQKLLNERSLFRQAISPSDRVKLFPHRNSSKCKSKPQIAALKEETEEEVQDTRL

wt-CFTR [3] = molecular target: T2, wt-CFTR
Procedure: (§1) Electrophysiology: CFTR channel currents were recorded at room temperature (~22° C.) with a patch-clamp amplifier (EPC-9, Heka Electronic), filtered at 100 Hz with a built-in three-pole Bessel filter, and stored on videotapes. Data were subsequently refiltered at 25 Hz with an eight-pole Bessel filter (Frequency Device, Havervill, Mass.) and captured onto a hard disk at a sampling rate of 50 Hz. […] Patch-clamp electrodes were made from Corning 7052 glass capillaries (Warner Instrument, Hammed, Conn.). The pipette resistance was usually 3-5 M.OMEGA., and the seal resistance was >20 G.OMEGA.. The pipette solution contained (in mM) 140 N-methyl-D-glucamine chloride (NMDG-C1), 2 MgCl2, 5Ca Cl2, and 10 HEPES (pH 7.4 with NMDG). The superfusion solution contained (in mM) 150 […], 2 MgCl2, 1 EGTA, 5 glucose, and 5 HEPES (pH 7.4 with NaOH). In excised inside-out patch experiments, the bath solution contained (in mM) 130 MNDG-Cl, 10 EGTA, 10 HEPES, 20 tetraethylammonium chloride, 8 Tris, and 2 MgCl2 (pH 7.4 with NMDG). Pipette potential was held at 50 mV relative to the bath. Downward deflections represent channel opening.

histidine kinase = conditions: cited from earlier work
[4] = system: acid secretion and osteopathic bone resorption; conditions: cited from earlier work
topoisomerases = conditions: cited from earlier work
wt-CFTR [5] = molecular target: T2, wt-CFTR; remark: listed apart in the source
Procedure: (§2) FIGS. 9A and B are recordings of the effects of genistein on CFTR gating in excised inside-out patches from NIH/3T3-CFTR or NIH/3T3-ΔF508 cells. CFTR channels were activated by 10 μM forskolin +20 nM calyculin A before excision into an inside-out configuration. Presence of calyculin A helps to slow channel dephosphorylation. (A): continuous 14.5 minute recording of a patch containing wt-CFTR. Expanded traces are 22 seconds in length. ATP (500 μM) with or without 20 μM genistein was present as indicated. (B): 2 traces of 44 seconds in length of an excised inside-out patch with CFTR-ΔF508.
as §1
(§3) Channels were first activated in cell-attached patches with forskolin plus calyculin A, a membrane-permeant phosphatase inhibitor [Suganuma et al., 1991]. Patches were then excised into an inside-out configuration.

ΔF508-CFTR [6] = molecular target: T1, ΔF508-CFTR; test: CFTR gating in excised inside-out patches, NIH/3T3-ΔF508 cells
Procedure: as §2, §1, §3

[7] = ATP with genistein, stated for both wt- and ΔF508-CFTR

## O=c1c(-c2ccc(O)cc2)coc2cc(O)cc(O)c12 [Genistein, 4',5,7-trihydroxyisoflavone]
ΔF508-CFTR [1]
  enhancement of ΔF508-CFTR channel activity by genistein: 19±11 fold
CFTR
  channel activity at given CFTR phosphorylation level: channel activity was greater in the presence of genistein
wt-CFTR [2]
  basal wt-CFTR activity: stimulates basal wt-CFTR activity
  channel activation in cells lacking basal CFTR activity: does not appear to activate the channel in cells that lack a basal CFTR activity
  deactivation of wt-CFTR currents after removal of cAMP-dependent stimulation: prevents deactivation of wt-CFTR channel currents
  potentiation of cAMP-dependent wt-CFTR activity: potentiates cAMP-dependent wt-CFTR channel activity
  steady-state phosphorylation of wt-CFTR: increases the steady-state phosphorylation level of wt-CFTR
wt-CFTR [2]; variety of cells
  activation of wt-CFTR chloride channels: activates wt-CFTR chloride channels
wt-CFTR [3]; patch crammed into a different NIH/3T3-CFTR cell
  magnitude of potentiation by genistein after patch cramming: similar
wt-CFTR [3]; wt-CFTR crammed into NIH/3T3-ΔF508 cell, 10 μM forskolin, 50 μM genistein, n=3
  increase of mean current by genistein: 3.2±0.3 fold
Histidine kinase
  inhibition of histidine kinase: inhibits
[4]
  inhibition of acid secretion and osteopathic bone resorption: effectively inhibits acid secretion and osteopathic bone resorption
topoisomerases
  inhibition of topoisomerases: inhibits
wt-CFTR [5]; 50 μM genistein, n=8
  increase of ATP-induced currents by genistein: 2.2±0.1 fold
wt-CFTR [5]; 50 μM genistein, no ATP
  opening of channels in absence of ATP: did not open wt-CFTR channels in the absence of ATP
wt-CFTR [5]; [7]
  channel open time: 2,033±173 milliseconds
wt-CFTR [5]; excised patches, ATP
  increase in Po by genistein: twofold increase in the Po
ΔF508-CFTR [6]; [7]
  channel open time: 2,033±173 milliseconds
ΔF508-CFTR [6]; genistein, n=7
  increase of ATP-dependent channel current by genistein: 2.3±0.5 fold
